Assay results from the CheMixHub viscosity set.
Values joined by “and” are separate entries in the source; they are usually repeats but may differ in a detail not shown here. Equal values may be shown once.

Assay: xn = mol fraction of the nth substance listed

OCCN(CCO)CCO + O
viscosity
Conditions	293.15 K	298.15 K	303.15 K	308.15 K	313.15 K	323.15 K
101 kPa, x1 = 0.029	2 mPa·s	–	–	–	–	0.988 mPa·s
101 kPa, x1 = 0.0434	–	2.499 mPa·s	2.194 mPa·s	–	1.661 mPa·s	–
101 kPa, x1 = 0.0649	–	3.802 mPa·s	3.446 mPa·s	–	2.406 mPa·s	–
101 kPa, x1 = 0.0966	–	6.839 mPa·s	5.658 mPa·s	–	4.005 mPa·s	–
101 kPa, x1 = 0.11	8.51 mPa·s	–	–	–	–	3.24 mPa·s
101 kPa, x1 = 0.1312	–	11.65 mPa·s	9.419 mPa·s	–	6.419 mPa·s	–
101 kPa, x1 = 0.1769	–	20.76 mPa·s	16.89 mPa·s	–	10.97 mPa·s	–
101 kPa, x1 = 0.27	64.6 mPa·s	–	–	–	–	14.8 mPa·s
101 kPa, x1 = 0.2724	–	54.52 mPa·s	41.37 mPa·s	–	25.21 mPa·s	–
101 kPa, x1 = 0.3481	–	96.45 mPa·s	73.09 mPa·s	–	41.11 mPa·s	–
101 kPa, x1 = 0.4784	–	187.3 mPa·s	131.4 mPa·s	–	70.8 mPa·s	–
101 kPa, x1 = 0.5814	–	278.1 mPa·s	187.2 mPa·s	–	97.64 mPa·s	–
101 kPa, x1 = 0.7166	–	390.4 mPa·s	269.9 mPa·s	–	138.2 mPa·s	–
101 kPa, x1 = 0.8347	–	472.7 mPa·s	328.9 mPa·s	–	166.2 mPa·s	–
101 kPa, x1 = 0.9177	–	542.7 mPa·s	369.7 mPa·s	–	184.6 mPa·s	–
101 kPa, x1 = 0.9724	–	585.3 mPa·s	396.2 mPa·s	–	196.3 mPa·s	–
101.3 kPa, x1 = 0.0064	1.141 mPa·s	0.998 mPa·s	0.872 mPa·s	0.765 mPa·s	0.664 mPa·s	0.555 mPa·s
101.3 kPa, x1 = 0.0134	1.33 mPa·s	1.161 mPa·s	1.039 mPa·s	0.914 mPa·s	0.801 mPa·s	0.688 mPa·s
101.3 kPa, x1 = 0.0294	–	1.789 mPa·s	1.559 mPa·s and 1.57 mPa·s	1.369 mPa·s	–	0.988 mPa·s

CCCCCCCCCCCC + C1CCCCC1
Conditions	viscosity [mPa·s]
297.78 K, 101.3 kPa, x1 = 0.4996	1.131
298.13 K, 101.3 kPa, x1 = 0.7489	1.247
298.15 K, 100 kPa, x2 = 0.2	1.263
298.15 K, 100 kPa, x2 = 0.4	1.171
298.15 K, 100 kPa, x2 = 0.6	1.071
298.15 K, 100 kPa, x2 = 0.8	0.979
298.15 K, 101.33 kPa, x1 = 0.0169	0.9114
298.15 K, 101.33 kPa, x2 = 0.1549	1.299
298.15 K, 101.33 kPa, x2 = 0.2886	1.237
298.15 K, 101.33 kPa, x2 = 0.3945	1.187
298.15 K, 101.33 kPa, x2 = 0.5031	1.138
298.15 K, 101.33 kPa, x2 = 0.5879	1.098
298.15 K, 101.33 kPa, x2 = 0.6636	1.048
298.15 K, 101.33 kPa, x2 = 0.7601	1.011
298.15 K, 101.33 kPa, x2 = 0.7983	0.9774
298.15 K, 101.33 kPa, x2 = 0.8536	0.9573
298.15 K, 101.33 kPa, x2 = 0.8943	0.9433
298.15 K, 101.33 kPa, x2 = 0.941	0.9223
298.31 K, 101.3 kPa, x1 = 0.5001	1.121
298.35 K, 101.3 kPa, x1 = 0.5001	1.116
298.38 K, 101.3 kPa, x1 = 0.2501	0.9923
298.43 K, 101.3 kPa, x1 = 0.2501	0.9883
298.43 K, 101.3 kPa, x1 = 0.4996	1.114
298.61 K, 101.3 kPa, x1 = 0.7489	1.232
298.62 K, 101.3 kPa, x1 = 0.7489	1.232
308.76 K, 101.3 kPa, x1 = 0.5001	0.9475
308.86 K, 101.3 kPa, x1 = 0.5001	0.948
323.15 K, 100 kPa, x2 = 0.2	0.8615
323.15 K, 100 kPa, x2 = 0.4	0.8075
323.15 K, 100 kPa, x2 = 0.6	0.7427
323.15 K, 100 kPa, x2 = 0.8	0.6736

Cc1ccccc1C + CC(C)(C)O
308.15 K, 101 kPa
Conditions	viscosity [mPa·s]
x2 = 0.0632	0.669
x2 = 0.1246	0.679
x2 = 0.204	0.677
x2 = 0.2992	0.674
x2 = 0.3725	0.731
x2 = 0.4258	0.777
x2 = 0.4948	0.814
x2 = 0.5942	0.908
x2 = 0.6887	1.028
x2 = 0.7935	1.376
x2 = 0.9065	1.962

CCCCCCCCCCCC + CCCCCCC
Conditions	viscosity
298 K, 101 kPa, x1 = 0.5	0.7879 mPa·s and 0.7868 mPa·s
298.15 K, 101.33 kPa, x2 = 0.1076	1.219 mPa·s
298.15 K, 101.33 kPa, x2 = 0.2092	1.086 mPa·s
298.15 K, 101.33 kPa, x2 = 0.3109	0.9598 mPa·s
298.15 K, 101.33 kPa, x2 = 0.4064	0.8662 mPa·s
298.15 K, 101.33 kPa, x2 = 0.5062	0.7707 mPa·s
298.15 K, 101.33 kPa, x2 = 0.6081	0.6772 mPa·s
298.15 K, 101.33 kPa, x2 = 0.7046	0.5964 mPa·s
298.15 K, 101.33 kPa, x2 = 0.8043	0.5157 mPa·s
298.15 K, 101.33 kPa, x2 = 0.9039	0.4454 mPa·s
318 K, 101 kPa, x1 = 0.5	0.6058 mPa·s and 0.6054 mPa·s

Cc1ccccc1C + CCOC(C)=O
Conditions	viscosity [mPa·s]
298.15 K, 101 kPa, x2 = 0.0459	0.74
298.15 K, 101 kPa, x2 = 0.1515	0.698
298.15 K, 101 kPa, x2 = 0.2504	0.661
298.15 K, 101 kPa, x2 = 0.349	0.625
298.15 K, 101 kPa, x2 = 0.4636	0.586
298.15 K, 101 kPa, x2 = 0.4948	0.576
298.15 K, 101 kPa, x2 = 0.5519	0.557
298.15 K, 101 kPa, x2 = 0.6488	0.527
298.15 K, 101 kPa, x2 = 0.7509	0.496
298.15 K, 101 kPa, x2 = 0.8487	0.468
298.15 K, 101 kPa, x2 = 0.9146	0.45
303.15 K, 101.32 kPa, x2 = 0.0599	0.679
303.15 K, 101.32 kPa, x2 = 0.1789	0.638
303.15 K, 101.32 kPa, x2 = 0.2918	0.601
303.15 K, 101.32 kPa, x2 = 0.4303	0.557
303.15 K, 101.32 kPa, x2 = 0.4994	0.535
303.15 K, 101.32 kPa, x2 = 0.5537	0.52
303.15 K, 101.32 kPa, x2 = 0.6001	0.507
303.15 K, 101.32 kPa, x2 = 0.6951	0.483
303.15 K, 101.32 kPa, x2 = 0.7859	0.457
303.15 K, 101.32 kPa, x2 = 0.873	0.437
303.15 K, 101.32 kPa, x2 = 0.9583	0.414
308.15 K, 101 kPa, x2 = 0.0459	0.643
308.15 K, 101 kPa, x2 = 0.1515	0.61
308.15 K, 101 kPa, x2 = 0.2504	0.579
308.15 K, 101 kPa, x2 = 0.349	0.551
308.15 K, 101 kPa, x2 = 0.4636	0.518
308.15 K, 101 kPa, x2 = 0.4948	0.51
308.15 K, 101 kPa, x2 = 0.5519	0.495
308.15 K, 101 kPa, x2 = 0.6488	0.47
308.15 K, 101 kPa, x2 = 0.7509	0.444
308.15 K, 101 kPa, x2 = 0.8487	0.421
308.15 K, 101 kPa, x2 = 0.9146	0.406
313.15 K, 101.32 kPa, x2 = 0.2056	0.565
313.15 K, 101.32 kPa, x2 = 0.4079	0.508
313.15 K, 101.32 kPa, x2 = 0.5023	0.483
313.15 K, 101.32 kPa, x2 = 0.5988	0.459
313.15 K, 101.32 kPa, x2 = 0.8018	0.411

Cc1ccccc1C + ClC(Cl)Cl
298.15 K, 101 kPa
Conditions	viscosity [mPa·s]
x2 = 0.262	0.739
x2 = 0.3694	0.725
x2 = 0.5222	0.6941
x2 = 0.5776	0.682
x2 = 0.6279	0.6691
x2 = 0.6624	0.6592
x2 = 0.7082	0.6482
x2 = 0.7562	0.6348
x2 = 0.7944	0.6224

CCCCCCCCCCO + CCCCCCC
viscosity [mPa·s], 101.33 kPa
Conditions	298.15 K	308.15 K
x1 = 0.0386	0.4346	0.3825
x1 = 0.0772	0.4872	0.4312
x1 = 0.1584	0.642	0.5562
x1 = 0.2472	0.8698	0.7324
x1 = 0.3368	1.225	1.034
x1 = 0.4264	1.647	1.331
x1 = 0.5326	2.338	1.903
x1 = 0.6364	3.29	2.7
x1 = 0.7498	5.08	3.93
x1 = 0.8055	5.926	4.829
x1 = 0.8688	7.145	5.938
x1 = 0.9331	8.722	6.788

CC(C)[C@@H]1CC[C@@H](C)C[C@H]1O + CCCO
Conditions	viscosity [mPa·s]
298.15 K, 101.33 kPa, x1 = 0.5	28.39

CC(C)[C@@H]1CC[C@@H](C)C[C@H]1O + CC(O)CO
Conditions	viscosity [mPa·s]
298.15 K, 101.33 kPa, x1 = 0.5	81.72

CC(C)CCC[C@@H](C)[C@H]1CC[C@H]2[C@@H]3CC=C4C[C@@H](O)CC[C@]4(C)[C@H]3CC[C@]12C + ClC(Cl)(Cl)Cl
viscosity [mPa·s], 101.33 kPa
Conditions	x1 = 0.0058	x1 = 0.00978	x1 = 0.0123	x1 = 0.01552	x1 = 0.01963	x1 = 0.02491	x1 = 0.03174
298 K	0.983	1.04	1.077	1.136	1.219	1.328	1.491
303 K	0.912	0.962	0.996	1.045	1.12	1.212	1.355
313 K	0.797	0.836	0.858	0.898	0.953	1.024	1.134
323 K	0.705	0.738	0.753	0.785	0.826	0.881	0.96
